# ChEMBL document CHEMBL1201862, “PubChem BioAssay data set” (2004)
# The source made the active and inactive calls.
# Experiments:
# [1] = target: T1, COUP transcription factor 2 (Homo sapiens, UniProt P24468); assay: Luminescence-based cell-based high throughput dose response assay to identify inhibitors of COUP-TFII (NR2F2).; format: functional;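 also: HEK293 cells transiently cotransfected with COUP-TFII expression vector and reporter; luciferase reporter luminescence driven by COUP-TFII from the pX2-168 reporter plasmid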
# T1 sequence (P24468 whole entry): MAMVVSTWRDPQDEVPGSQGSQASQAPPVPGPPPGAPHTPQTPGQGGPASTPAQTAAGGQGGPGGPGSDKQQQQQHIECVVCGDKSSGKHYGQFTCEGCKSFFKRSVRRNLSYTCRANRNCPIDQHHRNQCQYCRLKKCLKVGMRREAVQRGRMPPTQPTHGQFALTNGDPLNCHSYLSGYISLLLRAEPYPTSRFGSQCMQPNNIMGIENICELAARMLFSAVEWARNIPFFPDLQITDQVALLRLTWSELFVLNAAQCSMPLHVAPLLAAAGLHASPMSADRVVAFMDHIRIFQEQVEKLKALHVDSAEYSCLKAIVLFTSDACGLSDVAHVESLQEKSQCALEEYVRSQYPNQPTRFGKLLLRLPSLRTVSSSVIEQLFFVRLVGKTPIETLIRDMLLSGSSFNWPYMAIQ
# [2] = target: Protein Wnt-3a (Mus musculus, UniProt P27467); assay: antagonism of Wnt3a pathway luciferase reporter – Wnt-LIGHT cells, luminescence, selectivity assay for Gli-SUFU antagonist project, dose response (AID 651570); format: functional; details: read-out: IC50_Mean;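 also: Wnt-LIGHT reporter cells stimulated with conditioned medium from Wnt3a-producing cells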
# [3] = NIH-3T3 fibroblast cytotoxicity, dose response, cytotoxicity control, cell-based, fluorescence, Alamar Blue, secondary assay (AID 2327); format: functional;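 also: NIH-3T3 mouse fibroblasts cultured with fluconazole at 8 µg/mL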
# [4] = fluconazole-exposed Candida albicans growth modulators – fluorescence, retest, confirmation (AID 2467); format: functional, cell-based
# [5] = nonselective StAR promoter luciferase inhibitors – cell-based, luminescence, luciferase reporter, counter-screen for LRH-1 inverse agonist project, dose response (AID 651969); format: functional
# [6] = target: Nuclear receptor subfamily 5 group A member 2 (Homo sapiens, UniProt O00482); format: functional, cell-based;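 also: HEK293T cells transfected with LRH-1 and a StAR promoter luciferase reporter; potency for inhibitors that lower LRH-1 driven reporter light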
# [7] = target: Steroidogenic factor 1 (Homo sapiens, UniProt Q13285); assay: Counterscreen for inverse agonists of the liver receptor homolog-1 (LRH-1; NR5A2): Luminescence-based cell-based high throughput dose response assay to identify inverse agonists of the Steroidogenic Factor 1 Nuclear Receptor (SF1; NR5A1).; format: functional
# [8] = inhibition of ARNT PAS-B/TACC3 complex formation – biochemical, AlphaScreen, cherry-picked samples, confirmation (AID 651703); format: functional, Homo sapiens;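 also: His-tagged ARNT PAS-B domain paired with GST-TACC3 E629A dimer coactivator fragment; potency of inhibitors that break up the complex and lower AlphaScreen signal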
# [9] = target: Benomyl/methotrexate resistance protein (Candida albicans, UniProt P28873); assay: Candida albicans Mdr1 pump inhibition curves – singleplex, Cherry Pick1 hits, dose response (AID 588608); format: functional
# [10] = target: Voltage-dependent T-type calcium channel subunit alpha-1H (Homo sapiens, UniProt O95180); format: functional;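 also: channel activity triggered by adding a high calcium stimulation buffer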
# [11] = target: Potassium voltage-gated channel subfamily KQT member 2 (Rattus norvegicus, UniProt O88943); assay: blockers of KCNQ2 channel current – cell-based, automated electrophysiology, set II, rat KCNQ2, dose response (AID 588637); format: functional
# [12] = target: T2, High affinity choline transporter 1 (Homo sapiens, UniProt Q9GZV3); assay: human choline transporter potentiators, potency – cell-based, 10-point CRC, membrane potential dye, dose response (AID 602376); format: functional
# T2 sequence (Q9GZV3 whole entry): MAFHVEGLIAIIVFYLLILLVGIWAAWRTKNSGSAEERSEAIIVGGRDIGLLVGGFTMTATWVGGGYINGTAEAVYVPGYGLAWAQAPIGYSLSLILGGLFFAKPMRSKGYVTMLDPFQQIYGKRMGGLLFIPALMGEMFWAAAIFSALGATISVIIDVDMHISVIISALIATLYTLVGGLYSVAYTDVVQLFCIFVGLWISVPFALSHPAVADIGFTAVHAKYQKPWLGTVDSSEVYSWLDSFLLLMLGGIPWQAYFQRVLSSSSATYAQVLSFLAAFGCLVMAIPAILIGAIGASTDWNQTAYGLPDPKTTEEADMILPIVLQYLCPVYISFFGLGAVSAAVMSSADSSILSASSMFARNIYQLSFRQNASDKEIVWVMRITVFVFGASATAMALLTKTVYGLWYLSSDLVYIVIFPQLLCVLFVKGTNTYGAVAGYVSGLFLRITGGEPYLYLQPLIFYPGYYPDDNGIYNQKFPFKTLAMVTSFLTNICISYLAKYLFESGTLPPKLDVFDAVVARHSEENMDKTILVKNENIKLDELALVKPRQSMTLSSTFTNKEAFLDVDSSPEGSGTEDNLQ
# [13] = target: Mu-type opioid receptor (Homo sapiens, UniProt P35372); format: functional, cell-based;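 also: U2OS cells with beta-arrestin recruitment to OPRM1 by beta-gal complementation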
# [14] = target: 5-hydroxytryptamine receptor 2A (Mus musculus, UniProt P35363); format: functional, cell-based;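 also: CHO-K1 cells with tagged receptor and beta-arrestin; agonist potency measured as compound-induced activation of the receptor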
# [15] = target: Beta Lactamase (Pseudomonas aeruginosa, UniProt Q932Y6); assay: BLA reporter interference, concentration series – BLA reporter cells, FRET fluorescence, artefact control for NOD2-RIPK2 interaction inhibitor project, dose response (AID 651552); format: functional, cell-based
# [16] = target: G-protein coupled receptor 55 (Homo sapiens, UniProt Q9Y2T6); assay: selective activators of receptor GPR55 – imaging, U2OS cells, beta-arrestin-GFP redistribution, primary screen (AID 1961); format: functional
# [17] = Fluorescence-based cell-based high throughput dose response assay for inhibitors of the interaction of nucleotide-binding oligomerization domain containing 2 (NOD2) and the receptor-interacting serine-threonine kinase 2 (RIPK2).; format: functional; details: Homo sapiens
# [18] = viability of PTEN-deleted HCT116 cells – cell-based, HCT116 PTEN knockout, dose response (AID 1047); format: functional;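 also: HCT116 colon tumor cells with PTEN knocked out; cells exposed to compound for 60 hours before readout; potency for loss of cell viability measured by luminescence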
# [19] = viability of HCT116 lacking mutant beta-catenin – cell-based, human colon tumor, dose response (AID 1045); format: functional;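 also: HCT116 colon tumor cells with beta catenin knocked out; cells exposed to compound for 60 hours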
# [20] = tested on: Vero; assay: cells; format: functional; details: Chlorocebus sabaeus
# [21] = target: T3, Carboxy-terminal domain RNA polymerase II polypeptide A small phosphatase 1 (Homo sapiens, UniProt Q9GZU7); assay: CTDSP1 inhibitors, concentration-response, biochemical, absorbance readout, ultra-high-throughput screen actives (AID 540297); format: functional
# T3 sequence (Q9GZU7 whole entry): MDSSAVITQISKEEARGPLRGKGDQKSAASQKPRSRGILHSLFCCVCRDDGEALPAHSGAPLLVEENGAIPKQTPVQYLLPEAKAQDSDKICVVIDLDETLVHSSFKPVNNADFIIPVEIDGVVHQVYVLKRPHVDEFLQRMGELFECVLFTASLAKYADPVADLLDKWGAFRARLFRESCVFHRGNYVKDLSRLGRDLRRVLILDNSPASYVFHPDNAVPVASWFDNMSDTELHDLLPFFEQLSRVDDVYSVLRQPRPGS
# [22] = target: T4, Low molecular weight phosphotyrosine protein phosphatase (Homo sapiens, UniProt P24666); format: functional; details: read-out: IC50_Mean
# [23] = target: 26S proteasome non-ATPase regulatory subunit 14 (Homo sapiens, UniProt O00487); assay: inhibition of proteasome subunit RPN11 – biochemical, fluorescence polarization, uHTS hits, confirmation (AID 602368); format: functional
# [24] = target: Prothrombin (Bos taurus, UniProt P00735); assay: thrombin protease inhibitors – biochemical, fluorescence polarization, uHTS hits, dose response (AID 602369); format: functional
# [25] = target: 72 kDa type IV collagenase (Homo sapiens, UniProt P08253); assay: Dose Response validation of uHTS RPN11 inhibitor hits using a MMP-2 Fluorescence assay.; format: functional
# [26] = target: T5, Beta-lactamase (Pseudomonas aeruginosa, UniProt Q79MP6); assay: inhibition of IMP-1 beta-lactamase activity – biochemical, epi-absorbance, selectivity assay for VIM-2 inhibitor project, dose response (AID 1920)
# [27] = target: T5, Beta-lactamase; assay: […] counterscreen for selective VIM-2 inhibitors: dose response biochemical high throughput screening assay to identify inhibitors of IMP-1 metallo-beta-lactamase.
# [28] = target: Beta-lactamase (Salmonella choleraesuis (strain SC-B67), UniProt Q5J463); assay: Epi-absorbance-based counterscreen for selective VIM-2 inhibitors: dose response biochemical high throughput screening assay to identify inhibitors of TEM-1 serine-beta-lactamase.
# [29] = target: Mitochondrial peptide methionine sulfoxide reductase (Bos taurus, UniProt P54149); format: functional;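 also: absorbance read-out, biochemical high-throughput dose-response screen for MsrA inhibitors, confirmatory; recombinant bovine MsrA coupled to E. coli TrxB with NADPH and selenocystamine; potency is for inhibitors of MsrA activity on DMSO substrate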
# [30] = target: Apoptotic protease-activating factor 1 (Homo sapiens, UniProt O14727); assay: SAR analysis of small molecule Activators of Apaf-1 in a Fluorescent assay.; format: functional; details: read-out: EC50_Mean;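 also: caspase-3 cleavage of fluorogenic Rh110 DEVD substrate downstream of apoptosome activation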
# [31] = target: Caspase-7 (Homo sapiens, UniProt P55210); assay: caspase-7 enzyme inhibition, selectivity check – biochemical, DEVD-R110 fluorescence, cherry-pick, selectivity assay for caspase-6 inhibitor project, dose response (AID 743295); format: functional
# [32] = target: T4, Low molecular weight phosphotyrosine protein phosphatase; format: functional; details: read-out: IC50_Mean; remark: listed apart in the source
# [33] = target: T6, Caspase-6 (Homo sapiens, UniProt P55212); assay: inhibition of CASP6 peptide cleavage – biochemical, VEID-R110 fluorescence, cherry-pick, dose response (AID 720632)
# T6 sequence (P55212 whole entry): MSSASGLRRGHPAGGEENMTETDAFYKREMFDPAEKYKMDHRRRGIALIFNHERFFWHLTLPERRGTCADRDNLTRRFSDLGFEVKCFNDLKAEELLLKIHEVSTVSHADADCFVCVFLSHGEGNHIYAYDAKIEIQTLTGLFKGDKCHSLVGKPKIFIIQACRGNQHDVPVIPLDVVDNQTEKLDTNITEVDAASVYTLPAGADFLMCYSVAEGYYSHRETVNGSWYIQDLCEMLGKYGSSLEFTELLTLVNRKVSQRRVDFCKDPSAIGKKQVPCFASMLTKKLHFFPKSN
# [34] = cells; format: functional, cell-based
# [35] = target: T7, Probable nicotinate-nucleotide adenylyltransferase (Staphylococcus aureus (strain N315), UniProt P65502); format: functional, Staphylococcus aureus subsp. aureus N315; details: read-out: IC50_Mean;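 as to IC50 Mean: confirmatory dose-response retesting of NadD inhibitor hits first found in an ultra-high-throughput screen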
# [36] = target: T7, Probable nicotinate-nucleotide adenylyltransferase; format: functional, Staphylococcus aureus subsp. aureus N315
# [37] = target: T8, Leucine aminopeptidase (Plasmodium falciparum 3D7, UniProt Q8IL11); assay: P. falciparum M17LAP inhibitors, primary screen, biochemical, fluorogenic H-Leu-NHMec substrate, 1536-well (AID 1619); format: functional
# T8 sequence (Q8IL11 whole entry): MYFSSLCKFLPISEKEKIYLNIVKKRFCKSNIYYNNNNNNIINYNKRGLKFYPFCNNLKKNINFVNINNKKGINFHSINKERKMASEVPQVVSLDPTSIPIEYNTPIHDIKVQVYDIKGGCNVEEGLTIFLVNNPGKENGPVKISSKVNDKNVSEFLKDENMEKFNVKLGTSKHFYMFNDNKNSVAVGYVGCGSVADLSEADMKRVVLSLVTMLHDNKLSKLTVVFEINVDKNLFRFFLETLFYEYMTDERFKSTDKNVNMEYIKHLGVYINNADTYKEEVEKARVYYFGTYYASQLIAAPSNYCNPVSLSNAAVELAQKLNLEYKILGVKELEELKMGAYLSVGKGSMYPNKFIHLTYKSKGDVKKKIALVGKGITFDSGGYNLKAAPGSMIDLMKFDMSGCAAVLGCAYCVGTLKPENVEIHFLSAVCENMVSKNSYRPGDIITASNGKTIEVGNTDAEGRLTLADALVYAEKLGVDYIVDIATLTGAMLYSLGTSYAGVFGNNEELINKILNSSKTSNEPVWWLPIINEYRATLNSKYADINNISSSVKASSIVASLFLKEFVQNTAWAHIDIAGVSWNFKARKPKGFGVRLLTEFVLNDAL
# Sequence of G-protein coupled receptor 55 (Q9Y2T6 whole entry, the tested form may be a part): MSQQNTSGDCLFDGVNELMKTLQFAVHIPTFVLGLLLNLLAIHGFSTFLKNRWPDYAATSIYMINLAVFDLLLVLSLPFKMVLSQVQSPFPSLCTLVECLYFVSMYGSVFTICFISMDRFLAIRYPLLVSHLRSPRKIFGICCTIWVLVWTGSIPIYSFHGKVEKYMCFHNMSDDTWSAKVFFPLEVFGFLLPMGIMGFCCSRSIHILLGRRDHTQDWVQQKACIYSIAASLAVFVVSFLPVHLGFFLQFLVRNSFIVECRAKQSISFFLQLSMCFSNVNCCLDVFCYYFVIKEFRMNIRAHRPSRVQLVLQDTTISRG
# T5 sequence (Q79MP6 whole entry): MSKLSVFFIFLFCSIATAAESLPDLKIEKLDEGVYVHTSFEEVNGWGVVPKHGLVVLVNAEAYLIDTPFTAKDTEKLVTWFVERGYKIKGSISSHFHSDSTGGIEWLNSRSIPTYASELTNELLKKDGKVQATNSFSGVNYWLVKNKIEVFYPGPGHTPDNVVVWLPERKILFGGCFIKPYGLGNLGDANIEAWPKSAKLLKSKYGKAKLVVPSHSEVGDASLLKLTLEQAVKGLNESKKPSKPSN
# Sequence of Voltage-dependent T-type calcium channel subunit alpha-1H (O95180 whole entry): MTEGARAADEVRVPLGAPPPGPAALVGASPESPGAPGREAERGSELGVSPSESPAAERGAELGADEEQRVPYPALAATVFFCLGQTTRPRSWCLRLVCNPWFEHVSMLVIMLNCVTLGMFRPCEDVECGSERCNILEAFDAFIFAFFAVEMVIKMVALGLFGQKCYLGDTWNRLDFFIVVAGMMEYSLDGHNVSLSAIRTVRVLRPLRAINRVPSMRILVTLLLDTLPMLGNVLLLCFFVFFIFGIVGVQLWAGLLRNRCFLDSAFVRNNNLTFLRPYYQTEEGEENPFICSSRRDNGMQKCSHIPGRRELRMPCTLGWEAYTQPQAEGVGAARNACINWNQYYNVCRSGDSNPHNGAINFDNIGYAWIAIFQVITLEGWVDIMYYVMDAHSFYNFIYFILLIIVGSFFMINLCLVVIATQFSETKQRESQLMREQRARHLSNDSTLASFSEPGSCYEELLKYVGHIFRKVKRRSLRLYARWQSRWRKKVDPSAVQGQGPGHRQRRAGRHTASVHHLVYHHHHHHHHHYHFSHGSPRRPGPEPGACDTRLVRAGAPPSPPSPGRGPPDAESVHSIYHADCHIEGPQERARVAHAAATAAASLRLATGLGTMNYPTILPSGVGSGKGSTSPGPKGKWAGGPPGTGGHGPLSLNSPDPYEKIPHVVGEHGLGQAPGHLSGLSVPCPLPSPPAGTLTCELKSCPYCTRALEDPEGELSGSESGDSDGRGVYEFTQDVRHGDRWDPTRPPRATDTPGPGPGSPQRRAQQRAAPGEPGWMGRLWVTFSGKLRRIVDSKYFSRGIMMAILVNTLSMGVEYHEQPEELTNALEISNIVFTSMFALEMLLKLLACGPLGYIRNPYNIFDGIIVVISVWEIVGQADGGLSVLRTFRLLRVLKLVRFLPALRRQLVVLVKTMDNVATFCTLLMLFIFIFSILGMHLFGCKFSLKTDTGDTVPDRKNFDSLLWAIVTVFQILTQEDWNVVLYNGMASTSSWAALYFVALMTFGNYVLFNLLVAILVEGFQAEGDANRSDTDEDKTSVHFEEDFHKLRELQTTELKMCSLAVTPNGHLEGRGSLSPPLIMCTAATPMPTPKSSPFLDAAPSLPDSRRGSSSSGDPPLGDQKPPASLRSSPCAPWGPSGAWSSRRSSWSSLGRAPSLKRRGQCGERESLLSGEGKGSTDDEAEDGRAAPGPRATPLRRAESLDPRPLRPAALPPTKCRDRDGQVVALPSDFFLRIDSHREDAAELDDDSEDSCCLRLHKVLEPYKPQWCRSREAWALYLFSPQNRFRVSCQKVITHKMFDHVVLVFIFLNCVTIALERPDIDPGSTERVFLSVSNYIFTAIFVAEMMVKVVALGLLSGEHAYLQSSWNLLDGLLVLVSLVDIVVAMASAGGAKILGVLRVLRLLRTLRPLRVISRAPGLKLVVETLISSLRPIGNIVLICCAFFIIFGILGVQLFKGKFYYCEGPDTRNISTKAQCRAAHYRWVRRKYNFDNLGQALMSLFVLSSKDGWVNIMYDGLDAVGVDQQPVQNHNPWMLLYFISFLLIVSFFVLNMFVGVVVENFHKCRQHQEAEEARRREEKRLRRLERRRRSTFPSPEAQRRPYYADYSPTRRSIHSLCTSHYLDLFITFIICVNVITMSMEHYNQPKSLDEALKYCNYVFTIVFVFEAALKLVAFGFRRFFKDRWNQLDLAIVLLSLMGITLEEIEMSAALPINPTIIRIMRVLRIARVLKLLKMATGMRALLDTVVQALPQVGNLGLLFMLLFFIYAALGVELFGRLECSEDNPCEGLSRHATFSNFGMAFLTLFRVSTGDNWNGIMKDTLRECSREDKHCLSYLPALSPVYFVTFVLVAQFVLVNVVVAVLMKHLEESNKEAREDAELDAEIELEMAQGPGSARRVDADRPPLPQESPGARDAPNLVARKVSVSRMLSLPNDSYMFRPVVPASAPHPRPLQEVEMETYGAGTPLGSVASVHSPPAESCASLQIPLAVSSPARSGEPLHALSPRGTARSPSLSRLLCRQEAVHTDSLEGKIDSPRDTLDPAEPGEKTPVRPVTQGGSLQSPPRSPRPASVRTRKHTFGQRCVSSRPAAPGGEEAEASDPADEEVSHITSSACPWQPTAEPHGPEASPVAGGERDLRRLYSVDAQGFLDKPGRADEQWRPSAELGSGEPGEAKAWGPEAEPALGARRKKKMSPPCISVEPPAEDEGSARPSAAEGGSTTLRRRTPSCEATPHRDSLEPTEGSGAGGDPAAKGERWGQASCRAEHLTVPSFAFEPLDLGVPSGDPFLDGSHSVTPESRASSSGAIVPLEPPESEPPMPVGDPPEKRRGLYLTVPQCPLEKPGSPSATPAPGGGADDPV
# T7 sequence (P65502 whole entry): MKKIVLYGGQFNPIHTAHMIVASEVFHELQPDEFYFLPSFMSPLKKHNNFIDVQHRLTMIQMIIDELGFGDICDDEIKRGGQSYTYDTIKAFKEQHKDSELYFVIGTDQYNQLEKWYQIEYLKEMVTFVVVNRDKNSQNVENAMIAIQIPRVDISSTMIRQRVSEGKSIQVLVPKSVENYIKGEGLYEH
# T4 sequence (P24666 whole entry): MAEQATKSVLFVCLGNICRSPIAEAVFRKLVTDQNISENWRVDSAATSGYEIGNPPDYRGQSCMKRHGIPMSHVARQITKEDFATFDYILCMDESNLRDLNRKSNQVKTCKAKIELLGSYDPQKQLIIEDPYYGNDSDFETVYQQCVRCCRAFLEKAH
# Sequence of Beta Lactamase (Q932Y6 whole entry): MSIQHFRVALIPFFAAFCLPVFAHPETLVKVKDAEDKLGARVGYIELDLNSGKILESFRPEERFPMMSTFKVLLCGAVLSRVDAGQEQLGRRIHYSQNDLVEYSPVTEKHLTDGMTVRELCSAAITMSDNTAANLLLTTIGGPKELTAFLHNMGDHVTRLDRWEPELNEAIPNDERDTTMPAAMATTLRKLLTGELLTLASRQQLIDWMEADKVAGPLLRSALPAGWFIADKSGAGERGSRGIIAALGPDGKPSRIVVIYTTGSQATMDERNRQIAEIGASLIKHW
# Sequence of 26S proteasome non-ATPase regulatory subunit 14 (O00487 whole entry): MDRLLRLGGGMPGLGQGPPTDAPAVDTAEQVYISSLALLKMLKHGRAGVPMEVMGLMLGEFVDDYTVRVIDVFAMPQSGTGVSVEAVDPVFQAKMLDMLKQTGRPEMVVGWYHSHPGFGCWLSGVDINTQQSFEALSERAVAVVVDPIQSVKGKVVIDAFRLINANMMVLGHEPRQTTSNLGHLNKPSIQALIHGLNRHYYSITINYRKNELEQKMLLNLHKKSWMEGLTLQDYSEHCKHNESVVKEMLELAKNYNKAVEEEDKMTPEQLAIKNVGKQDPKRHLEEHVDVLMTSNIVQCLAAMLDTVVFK
# Sequence of Mitochondrial peptide methionine sulfoxide reductase (P54149 whole entry): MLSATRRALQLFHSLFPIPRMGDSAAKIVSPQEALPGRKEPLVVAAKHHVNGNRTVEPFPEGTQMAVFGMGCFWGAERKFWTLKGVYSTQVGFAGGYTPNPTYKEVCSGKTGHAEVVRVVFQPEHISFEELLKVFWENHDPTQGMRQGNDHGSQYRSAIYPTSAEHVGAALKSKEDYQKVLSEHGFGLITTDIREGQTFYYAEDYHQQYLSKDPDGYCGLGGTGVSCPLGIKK
# Sequence of Nuclear receptor subfamily 5 group A member 2 (O00482 whole entry): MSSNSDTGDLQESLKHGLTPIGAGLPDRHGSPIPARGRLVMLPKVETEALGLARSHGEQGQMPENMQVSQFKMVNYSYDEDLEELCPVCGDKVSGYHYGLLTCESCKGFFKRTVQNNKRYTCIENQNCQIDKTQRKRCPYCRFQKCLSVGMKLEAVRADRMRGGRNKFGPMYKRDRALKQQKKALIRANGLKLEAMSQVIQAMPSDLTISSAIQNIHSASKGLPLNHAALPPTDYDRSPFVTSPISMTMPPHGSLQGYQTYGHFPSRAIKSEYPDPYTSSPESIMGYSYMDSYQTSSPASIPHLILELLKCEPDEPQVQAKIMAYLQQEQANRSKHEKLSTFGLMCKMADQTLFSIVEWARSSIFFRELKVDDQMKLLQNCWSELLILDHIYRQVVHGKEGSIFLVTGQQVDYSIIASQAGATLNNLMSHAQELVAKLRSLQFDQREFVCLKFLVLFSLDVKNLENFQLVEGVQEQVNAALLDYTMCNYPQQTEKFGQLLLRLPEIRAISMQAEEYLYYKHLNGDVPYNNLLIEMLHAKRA
# Sequence of Protein Wnt-3a (P27467 whole entry): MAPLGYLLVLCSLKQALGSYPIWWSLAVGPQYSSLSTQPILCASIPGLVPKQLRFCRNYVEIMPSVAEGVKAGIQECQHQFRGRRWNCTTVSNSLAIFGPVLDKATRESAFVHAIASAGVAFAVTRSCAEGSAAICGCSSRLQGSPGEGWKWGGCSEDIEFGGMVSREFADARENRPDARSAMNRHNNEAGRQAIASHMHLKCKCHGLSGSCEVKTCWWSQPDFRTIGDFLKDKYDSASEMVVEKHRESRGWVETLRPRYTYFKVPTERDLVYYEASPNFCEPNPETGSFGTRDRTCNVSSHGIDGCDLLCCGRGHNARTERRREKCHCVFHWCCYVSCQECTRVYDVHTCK
structure (smiles),measurement,setting,value
Cc1nn(C)c(C)c1/C=C/C(=O)c1ccc(Cl)cc1Cl,IC50,[1],14.8 µM (inactive)
same,IC50,[2],2.49 µM (active)
same,EC50,[3],84.9 µM (inconclusive)
same,EC50,[4],3.56 µM (active)
N=c1sccn1CC(=O)Nc1ccc(S(N)(=O)=O)cc1,IC50,[5],35.9 µM (inactive)
same,IC50,[6],2.32 µM (active)
same,IC50,[7],3.81 µM (active)
Cc1cccc(NC(=O)C(C)N2CC=C(c3ccccc3)CC2)c1 (stereo not given),AC50,[8],88.4 µM (active)
COc1ccc(C2CC(c3ccccc3C(F)(F)F)=NN2c2ccc(S(N)(=O)=O)cc2)cc1 (stereo not given),EC50,[9],22.6 µM (active)
COc1ccc(-c2nc(CSCC(=O)NC3CCCc4ccccc43)c(C)o2)cc1 (stereo not given),EC50,[10],3.95 µM (active)
same,IC50,[11],1.76 µM (active)
Fc1ccc(C(c2nnnn2C2CCCC2)N(Cc2ccco2)CC2CCCO2)cc1 (stereo not given),EC50,[10],3.83 µM (active)
same,EC50,[12],14.5 µM (active)
OC(COc1ccc2cc(Br)ccc2c1)CN1CCN(c2ccccn2)CC1 (stereo not given),EC50,[13],92.5 µM (inactive)
same,EC50,[14],903 nM (active)
N#Cc1ccccc1Cn1cc(/C=C/[N+](=O)[O-])c2ccccc21,IC50,[15],24.4 µM (inactive)
same,EC50,[16],3.11 µM (active)
same,IC50,[17],10.3 µM (inactive)
same,EC50,[18],17.8 µM (active)
same,EC50,[19],18 µM (active)
same,CC50,[20],8.92 µM (active)
O=C(Nc1nc2ccsc2c(=O)s1)c1ccc(Cl)cc1,IC50,[21],5.43 µM (active)
same,IC50,[22],39.3 µM (inactive)
CC1CCN(c2ccc3c(c2)S(=O)(=O)c2cccc(C(=O)NC4CCCCC4)c2C3=O)CC1,IC50,[23],14.1 µM (active)
same,IC50,[24],26.8 µM (active)
same,IC50,[25],> 100 µM (inactive)
CCc1ccc(Nc2n[n+](-c3ccccc3)c(-c3ccc(SC)cc3)s2)cc1,EC50,[16],23.1 µM (inactive)
same,EC50,[12],10.2 µM (active)
O=C(O)c1ccccc1C(=O)c1cccc2ccccc12,IC50,[26],> 59.6 µM (inactive)
same,IC50,[27],> 59.6 µM (inactive)
same,IC50,[28],> 59.6 µM (inactive)
O=C(C(=O)c1ccc(O)c(O)c1)c1ccc(O)c(O)c1,IC50,[29],112 µM (inactive)
O=C(Nc1cccc(O)c1)C1CC(c2ccc(F)cc2)=NO1 (stereo not given),EC50,[30],> 100 µM (inactive)
CCCCNC(=O)c1nc(C2CCNCC2)oc1-c1cccc(C(F)(F)F)c1,AC50,[31],> 70 µM (inactive)
same,IC50,[32],39.9 µM (inactive)
same,AC50,[33],1.6 µM (active)
CCc1nnc(NS(=O)(=O)c2ccc(/N=C/c3c(C)nn(-c4ccc(C)c(C)c4)c3O)cc2)s1,IC50,[34],70 µM (inactive)
same,IC50,[35],16.5 µM (active)
same,IC50,[36],4.55 µM (active)
same,IC50,[37],14.4 µM (active)
